From US11845807B2, “Method and carrier complexes for delivering molecules to cells” (priority 2003, dated 2023)
Square brackets hold non-standard residues; d marks the D form. Peptide text beside a SMILES is read from it. * marks the point of attachment. Dansyl = CN(C)c1cccc2c(S(=O)(=O)*)cccc12; Dmt = Cc1cc(O)cc(C)c1C[C@H](N)C(=O)O; 2Abz = Nc1ccccc1C(=O)O; Dap = NC[C@H](N)C(=O)O; Sar = CNCC(=O)O

Key:
Huh7 cells = assay: Cell viability by trypan blue uptake; format: cell-based; conditions: 50 μl of 1 mM conjugate in 1 ml medium, 24 hours at 37° C.
Protocol: Trypan blue is only taken by cells with increased membrane permeability. Huh7 cells (1×10^6) were washed three times in DMEM, and 1 ml of fresh medium, or media containing 50 μl of 1 mM [Dmt^1]DALDA-SMCC conjugate, [D-Arg-Dmt-Lys-Phe-NH2]-SMCC conjugate, or [Phe^1]DALDA-SMCC conjugate, and incubated at 37° C. for 24 hours at 5% CO2. Cells were then washed three times with DMEM, and 1 ml of 0.4% trypan blue was added to the cells for 2 minutes. Excessive dye was removed by washing cells in cell medium and the cells were examined by light microscopy.

Caco-2 cells [1] = assay: Assay for peptide uptake in Caco-2 cells; format: cell-based
Description: Assay for Peptide Uptake.

[2] = Peptide translocation across Caco-2 monolayers (Transwell, apical-to-basolateral); format: in vitro ADME; conditions: Caco-2; apical-to-basolateral; read-out: apparent permeability coefficient
Protocol: (§1) Assay for Peptide Translocation across Caco-2 Monolayers. Monolayers of Caco-2 cells were prepared as described previously (Irie et al., J. Pharmacol. Exp. Ther. 2001, 298: 711-717), Caco-2 cells (2×10^5) were seeded on microporous membrane filters (24 mm, […]) inside Transwell cell culture chambers (Corning Glassworks, Corning, N.Y.). Each Transwell chamber was filled with 1.5 ml of medium in the apical compartment and 2.5 ml in the basolateral compartment. The cell monolayers were given fresh medium every 1 to 2 days and were used on day 28 for transport experiments.
(§2) The apparent permeability coefficient was calculated according to the following equation: Papp=X/(t·A·Co), where X/t is the rate of uptake in the receiver compartment, A is the diffusion area (4.72 cm^2), and Co is the initial concentration in the donor compartment.

Caco-2 monolayer = assay: as above; format: in vitro ADME; conditions: 60 min
Protocol: as §1, §2

Caco-2 cells [3] = assay: Assay for peptide efflux from Caco-2 cells; format: cell-based
Protocol: Assay for Peptide Efflux from CaCo-2 Cells. […] Cells were then washed four times with 1 ml of ice-cold incubation solution to terminate uptake and then incubated with 0.5 ml of MEM for 1 h at either 37 or 4° C. to measure the efflux of peptide from cells to the incubation medium. The amount of radioactivity was determined in cell lysates and in the incubation medium.

Caco-2 cells [4] = conditions: Terada et al. 1999; confirmed in this study (FIG. 2B); cited from earlier work
SH-SY5Y cells = assay: Confocal laser scanning microscopy of fluorescent peptide uptake, SH-SY5Y cells; format: cell-based; conditions: 0.1 μM, 30 min at 4° C.
Protocol: Confocal Laser Scanning Microscopy. The uptake of aromatic-cationic peptides into cells was confirmed by confocal laser scanning microscopy (CLSM) using two fluorescent peptides, [Dmt^1,dnsDap^4]DALDA (Dmt-D-Arg-Phe-dnsDap-NH2, where dnsDap is β-dansyl-1-α-β-diamino-propionic acid) and [Dmt^1.atnDap^4]DALDA (Dmt-D-Arg-Phe-atnDap-NH2, where atn is β-anthraniloyl-L-α-β-diaminopropionic acid). Caco-2 cells or SH-SYSY cells were grown as described above and were plated on (35-mm) glass bottom dishes (MatTek, Ashland, Mass.) for 2 days. […] Cells were then washed three times with ice-cold HESS and covered with 200 μl of PBS, and microscopy was performed within 10 min at room temperature using a confocal laser scanning microscope with a C-Apochromat 63×/1.2 W torr objective (Nikon, Tokyo, Japan). Excitation/emission wavelengths were set at 340/520 nm for [Dmt^1,dnsDap^4]DALDA and 320/420 nm for [Dmt^1,atnDap^4]-DALDA, respectively. For optical sectioning in z-direction, 5 to 10 frames with […] were made.

Caco-2 cells [5] = assay: Confocal laser scanning microscopy of fluorescent peptide uptake, Caco-2 cells; format: cell-based; conditions: 0.1 μM, 15 min at 37° C.
Protocol: Confocal Laser Scanning Microscopy. The uptake of aromatic-cationic peptides into cells was confirmed by confocal laser scanning microscopy (CLSM) using two fluorescent peptides, [Dmt^1,dnsDap^4]DALDA (Dmt-D-Arg-Phe-dnsDap-NH2, where dnsDap is β-dansyl-1-α-β-diamino-propionic acid) and [Dmt^1.atnDap^4]DALDA (Dmt-D-Arg-Phe-atnDap-NH2, where atn is β-anthraniloyl-L-α-β-diaminopropionic acid). Caco-2 cells or SH-SYSY cells were grown as described above and were plated on (35-mm) glass bottom dishes (MatTek, Ashland, Mass.) for 2 days. The medium was then removed, and cells were incubated with 1 ml of HBSS containing 0.1 μM of the fluorescent peptide at either 4° C. or 37° C. for 15 min. Cells were then washed three times with ice-cold HESS and covered with 200 μl of PBS, and microscopy was performed within 10 min at room temperature using a confocal laser scanning microscope with a C-Apochromat 63×/1.2 W torr objective (Nikon, Tokyo, Japan). Excitation/emission wavelengths were set at 340/520 nm for [Dmt^1,dnsDap^4]DALDA and 320/420 nm for [Dmt^1,atnDap^4]-DALDA, respectively. For optical sectioning in z-direction, 5 to 10 frames with […] were made.

Caco-2 cells [6] = assay: Uptake of peptide-β-Gal conjugates into cells (β-gal staining); format: cell-based; conditions: 1 h at 37° C.
Description: Conjugation of protein to [Dmt1]DALDA. was cross-linked to β-galactosidase (recombinant E. coli, Sigma-Aldrich) using a cross-linker SMCC (succinimidyl 4-(N-maleimidomethyl)yclohexane-1-carboxylate)(Pierce). […] Its maleimide end can then be conjugated to a sulfhydryl-containing compound to create a thioether linkage (Bioconjugate Techniques by Greg T. Hermanson, Academic Press, page 234-237). β-Gal contains abundant free sulfhydryl groups in its native state. The uptake of β-Gal provides a convenient read-out with the use of X-gal. […] This should result in “activated peptide.” The “activated peptide” was diluted 1:10 with phosphate buffer. 1 mg of β-Gal was added to 1 ml of the 1:10 “activated peptide” and mixed at 4° C. for either 2 h or overnight.
Assay for [Dmt1]DALDA-protein conjugate uptake into cells. […] Cells were then washed 4 times with PBS. The cells were then stained with β-gal staining set (Roche) for at least 2 h at 37° C. and examined under the microscope.
This should result in “activated peptide.” The “activated peptide” was diluted 1:10 with phosphate buffer. 1 mg of β-Gal was added to 1 ml of the 1:10 “activated peptide” and mixed at 4° C. for either 2 h or overnight.
Cells were then washed 4 times with phosphate buffer. The cells were then stained with β-gal staining set (Roche) for at least 2 h at 37° C. and examined under the microscope.

Compound: CCOC(=O)OC(=O)OCC [DEPC, diethylpyrocarbonate, reference compound]
- trypan blue uptake (cell viability) (Huh7 cells): significant uptake of trypan blue

Compound: CN(CC(=O)O)C(=O)CN [Gly-Sar, reference compound] (H-Gly-[Sar]-OH)
- effect of DEPC on uptake (Caco-2 cells [1]; 0.2 mM DEPC): significantly inhibited
- effect of 4° C. on uptake (Caco-2 cells [1]; 4° C. versus 37° C.): completely abolished
- time course of uptake (Caco-2 cells [1]; 37° C., 50 μM): continued to increase from 5 to 45 min
- Papp A→B [2]: 12.6 ×10⁻⁶ cm/s
- percentage translocated from the apical to the basolateral side (Caco-2 monolayer): 11.9%
- effect of temperature (4° C.) on efflux (Caco-2 cells [3]; 4° C. versus 37° C.): significantly reduced
- peptide effluxed into medium (Caco-2 cells [3]; preloaded 1 h, 1 h efflux at 37° C.): 39%
- pH of optimal uptake (by PEPT1) (Caco-2 cells [4]): 6.0

Compound: Cc1cc(O)cc(C)c1C[C@H](N)C(=O)N[C@H](CCCNC(=N)N)C(=O)N[C@@H](Cc1ccccc1)C(=O)N[C@@H](CNC(=O)c1ccccc1N)C(N)=O [[Dmt^1,atnDap^4]DALDA, Dmt-D-Arg-Phe-atnDap-NH2] (H-[Dmt][dR]F[Dap](2Abz)-NH2; N-terminus assumed)
- internalization at 4° C. (SH-SY5Y cells): energy-independent non-endocytotic uptake mechanism

Compound: Cc1cc(O)cc(C)c1C[C@H](N)C(=O)N[C@H](CCCNC(=N)N)C(=O)N[C@@H](Cc1ccccc1)C(=O)N[C@@H](CNS(=O)(=O)c1cccc2c(N(C)C)cccc12)C(N)=O [[Dmt^1,dnsDap^4]DALDA, Dmt-D-Arg-Phe-dnsDap-NH2] (H-[Dmt][dR]F[Dap](Dansyl)-NH2; N-terminus assumed)
- intracellular distribution of fluorescence (Caco-2 cells [5]): diffuse throughout the cytoplasm with no apparent vesicular distribution
- nuclear localisation of fluorescence (Caco-2 cells [5]): completely excluded from the nucleus
- intracellular distribution of fluorescence (Caco-2 cells [5]; dnsDap^4]DALDA): diffuse throughout the cytoplasm

Compound: N=C(N)NCCC[C@@H](NC(=O)[C@@H](N)Cc1ccccc1)C(=O)N[C@@H](Cc1ccccc1)C(=O)N[C@@H](CCCCN)C(N)=O [[Phe^1]DALDA, Phe-D-Arg-Phe-Lys-NH2] (H-F[dR]FK-NH2; N-terminus assumed)
- trypan blue uptake (cell viability) (Huh7 cells): No increase in trypan blue uptake

Compound: β-Gal with SMCC: β-Gal conjugated with SMCC alone, without peptide (control) [reference compound]
- uptake of β-Gal into cells (blue cells) (Caco-2 cells [6]): did not enhance uptake

Compound: β-Gal: β-galactosidase (recombinant E. coli, Sigma-Aldrich), protein cargo
- uptake of β-Gal into cells (blue cells) (Caco-2 cells [6]): no uptake
